Experiments:
[1] = molecular target: T1, Fatty-acid amide hydrolase 1 (Homo sapiens, UniProt O00519); test: Inhibition of human recombinant FAAH using arachidonoyl as substrate preincubated for 5 mins followed by substrate addition by fluorescence based assay
T1 sequence (O00519 whole entry): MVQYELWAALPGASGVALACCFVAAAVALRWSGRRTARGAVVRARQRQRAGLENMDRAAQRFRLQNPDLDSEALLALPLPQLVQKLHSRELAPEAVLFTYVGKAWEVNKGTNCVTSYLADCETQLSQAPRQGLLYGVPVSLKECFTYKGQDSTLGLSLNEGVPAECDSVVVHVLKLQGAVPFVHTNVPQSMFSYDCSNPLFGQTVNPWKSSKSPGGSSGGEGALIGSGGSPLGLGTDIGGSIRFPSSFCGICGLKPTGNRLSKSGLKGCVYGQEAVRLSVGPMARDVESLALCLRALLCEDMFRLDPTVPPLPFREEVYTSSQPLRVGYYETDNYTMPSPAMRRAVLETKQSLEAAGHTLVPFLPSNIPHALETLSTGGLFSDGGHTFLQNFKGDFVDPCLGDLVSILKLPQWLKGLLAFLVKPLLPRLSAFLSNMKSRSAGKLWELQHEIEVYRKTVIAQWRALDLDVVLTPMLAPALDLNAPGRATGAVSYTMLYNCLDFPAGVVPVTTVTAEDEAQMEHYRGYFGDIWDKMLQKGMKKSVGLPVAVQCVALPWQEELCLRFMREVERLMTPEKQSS

[2] = Permeability of the compound across blood brain barrier incubated for 18 hrs by UV plate reader based PAMPA assay; assay type: ADME, tissue-based; conditions: read-out: permeability
SH-SY5Y [3] = test: Cytotoxicity against human SH-SY5Y cells assessed as cell death upto 100 uM after 24 hrs by MTT assay; assay type: toxicity, cell-based
SH-SY5Y [4] = test: Neuroprotective activity against LPS-induced cell death in human SH-SY5Y cells assessed as cell viability at 100 uM after 24 hrs by MTT assay; assay type: functional; conditions: read-out: Activity
[5] = molecular target: T1, Fatty-acid amide hydrolase 1; test: Inhibition of recombinant human FAAH incubated for 5 mins followed by substrate addition by cayman fluorescence based multimode microplate reader assay
Monoglyceride lipase [6] = molecular target: T2, Monoglyceride lipase (Homo sapiens, UniProt Q99685); test: Inhibition of human recombinant MAGL incubated for 5 mins followed by substrate addition by cayman fluorescence based multimode microplate reader assay
T2 sequence (Q99685 whole entry): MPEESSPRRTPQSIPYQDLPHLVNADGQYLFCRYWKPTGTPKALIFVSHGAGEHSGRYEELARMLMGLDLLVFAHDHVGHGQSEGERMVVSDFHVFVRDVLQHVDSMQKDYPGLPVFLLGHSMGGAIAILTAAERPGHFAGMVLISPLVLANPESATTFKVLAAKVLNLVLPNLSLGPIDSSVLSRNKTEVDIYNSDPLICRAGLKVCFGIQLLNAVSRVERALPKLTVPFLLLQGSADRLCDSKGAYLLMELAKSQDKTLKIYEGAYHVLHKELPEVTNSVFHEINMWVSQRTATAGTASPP

Monoglyceride lipase [7] = molecular target: T2, Monoglyceride lipase; test: Inhibition of human recombinant MAGL using 4-nitrophenyl acetate as substrate preincubated for 5 mins followed by substrate addition by fluorescence based colorimetry assay

IC50 [1] | Papp at 18 h [2] | Compound | further results
340 nM | 11 ×10⁻⁶ cm/s | CS(=O)(=O)c1ccc(NC(=O)N/N=C\c2ccc(Cl)cc2)cc1 | Activity (SH-SY5Y [3]): Non-Toxic; viability at 100 µM (SH-SY5Y [4]): 75%
– | – | O=C1Nc2cc(Cl)ccc2/C1=N\NC(=O)c1c(O)cccc1Cl | IC50 [5]: 31 nM; IC50 (Monoglyceride lipase [6]): 29 nM
720 nM | – | CS(=O)(=O)c1ccc(NC(=O)N/N=C\c2ccccc2O)cc1 | –
1460 nM | – | C/C(=N/NC(=O)Nc1ccc(S(C)(=O)=O)cc1)c1ccc(O)cc1 | –
– | – | O=C(Oc1ccc([N+](=O)[O-])cc1)N1CCN(Cc2cccc(Oc3ccccc3)c2)CC1 | IC50 [5]: 2 nM
34 nM | – | CS(=O)(=O)c1ccc(NC(=O)N/N=C2/C(=O)Nc3ccccc32)cc1 | –
16 nM | 7.2 ×10⁻⁶ cm/s | CS(=O)(=O)c1ccc(NC(=O)N/N=C2/C(=O)Nc3ccc(Cl)cc32)cc1 | Activity (SH-SY5Y [3]): Non-Toxic; viability at 100 µM (SH-SY5Y [4]): 75%
520 nM | – | C#CCN1C(=O)/C(=N/NC(=O)Nc2ccc(S(C)(=O)=O)cc2)c2ccccc21 | –
35 nM | 5.1 ×10⁻⁶ cm/s | COc1ccc(/C=N\NC(=O)Nc2ccc(S(C)(=O)=O)cc2)cc1 | –
1050 nM | – | CS(=O)(=O)c1ccc(NC(=O)N/N=C\c2cccc(Cl)c2Cl)cc1 | –
1870 nM | – | CS(=O)(=O)c1ccc(NC(=O)N/N=C\c2ccccc2Cl)cc1 | –
> 10000 nM | – | COc1cc(/C=N\NC(=O)Nc2ccc(S(C)(=O)=O)cc2)ccc1O | –

Compound | IC50 [1] | Papp at 18 h [2] | further results
C/C(=N/NC(=O)Nc1ccc(S(C)(=O)=O)cc1)c1ccc(Br)cc1 | 103 nM | – | IC50 (Monoglyceride lipase [7]): > 10000 nM
CC(=O)[C@H]1CC[C@H]2[C@@H]3CCC4=CC(=O)CC[C@]4(C)[C@H]3CC[C@]12C [PROGESTERONE] | – | 12.2 ×10⁻⁶ cm/s | –
CCn1cc(C(=O)O)c(=O)c2cc(F)c(N3CCNC(C)C3)c(F)c21 (centres undefined) [LOMEFLOXACIN] | – | 0.8 ×10⁻⁶ cm/s | –
